Assays:
[1] = molecular target: T1, G protein (Smg p21), molecular weight of 22,000, purified from bovine brain (Bos taurus, UniProt P62833); test: GTP hydrolyzing activity of purified G protein (Smg p21); assay type: biochemical
T1 construct: a crude membrane fraction was extracted with sodium cholate from bovine brain; from tissue; host or cells: bovine brain (crude membrane fraction, cholate extract)
T1 sequence (P62833 1-181 limits assumed): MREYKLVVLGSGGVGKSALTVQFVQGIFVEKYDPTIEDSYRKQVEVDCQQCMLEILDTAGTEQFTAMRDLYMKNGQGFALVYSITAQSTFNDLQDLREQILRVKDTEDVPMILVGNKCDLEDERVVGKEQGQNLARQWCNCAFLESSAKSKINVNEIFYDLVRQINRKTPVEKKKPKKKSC
Excerpt: (§1) • (a) Crude G protein with molecular weight (relative molecular weight : Mr) of 20,000 to 25,000 was obtained in accordance with the method of Kikuchi, et al. (Journal of the Biological Chemistry, 263, p 2897 - 2904, 1988). Specifically, a crude membrane fraction was extracted with sodium cholate from bovine brain, and the fraction was fractionated on Ultrogel AcA-44 column chromatography to separate and obtain a fraction at the second peak among two peaks showing GTP binding activity. The fraction thus obtained was purified on phenyl Sepharose CL-4B column chromatography and then further fractionated on hydroxyapatite column chromatography to separate and obtain a fraction at the first peak. Then, the first peak fraction was fractionated on Mono Q HR 5/5 column chromatography and the fraction at the first peak was separated and collected to obtain a crude G protein with Mr of 20,000 - 25,000. • (b) The crude G protein obtained in (a) above was subjected to Mono S HR 5/5 column chromatography equilibrated with a buffer solution of 50 mM sodium acetate (pH, 5.0) containing 1 mM EDTA, 1mM dithiothreitol, 5 mM magnesium chloride and 0.6 % CHAPS (3- [(3-cholamidopropyl) dimethylammonio]-1-propane sulfonate). After washing with 5 ml of the same buffer solution, it was eluted out by the same buffer solution (20 ml) with a concentration gradient of sodium chloride (0 - 1.0 M). […]

[2] = molecular target: T1, G protein (Smg p21), molecular weight of 22,000, purified from bovine brain; test: GTP binding activity of purified G protein (Smg p21)
Excerpt: as §1

| GTP Hydrolyzing Activity (number of turnovers) [1] | Kd ([2]; purified G protein (Smg p21) from bovine brain) | Compound | Effect of N-ethylmaleimide on GTP Binding Activity ([2]; no concentration stated, presence of dithiothreitol blocks the inhibition) |
| --- | --- | --- | --- |
| 0.005 min⁻¹ | 30 ± 6 nM | Nc1nc2c(ncn2[C@@H]2O[C@H](COP(=O)(O)OP(=O)(O)OP(=O)(O)O)[C@@H](O)[C@H]2O)c(=O)[nH]1 [GTP, guanosine-5-triphosphate] |  |
|  |  | CCN1C(=O)C=CC1=O [N-ethylmaleimide] | inhibited |

Reference: EP0346187B1, “Novel GTP binding protein and method for production thereof” (MITSUBISHI KASEI CORPORATION, priority 1988, dated 1989)
